Read-outs that look alike come from different tables or passages of the source.
B1: I-CreI: wild-type I-CreI meganuclease (… homing endonuclease), SEQ ID NO: 1, recombinant Cterm His-tag (protein, listed as Chlamydomonas reinhardtii)
chain: MNTKYNKEFLLYLAGFVDGDGSIIAQIKPNQSYKFKHQLSLTFQVTQKTQRRWFLDKLVDEIGVGYVRDRGSVSDYILSEIKPLHNFLTQLQPFLKLKQKQANLVLKIIEQLPSAKESPDKFLEVCTWVDQIAALNDSKTRKTTSETVRAVLDSLSEKKKSSP
modifications: C-terminal His-tag

Experiments:
[1] = tested on: XPC4 target CpG motives in 293H cells; test: DNA methylation of XPC4 target by bisulfite treatment and sequencing, 5-aza-2-deoxycytidine treatment; assay type: cell-based, human; conditions: for amount of unmethylated C, % of total: one of the two CpG of XPC4 target; for amount of unmethylated C: the other CpG of XPC4 target
Procedure: FIG. 9: Chromatograms of sequencing reactions at the XPC4 target locus, made after bisulfite treatment. Cells were pre-treated with 5-aza-2-deoxycytidine at 0.2 μM or 1 μM 48 hours before transfection with the XPC4 meganuclease or with an empty vector. The treatment was maintained 48 hours post-transfection. As a control, we used cells not treated with 5-aza-2-deoxycytidine (NT). Two days post transfection, genomic DNA was extracted and treated with bisulfite, which converts cytosine, but not 5-methylcytosine into uracil. DNA from the XPC4 target locus region was amplified by PCR, and sequenced. Sequence of the XPC4 target is indicated on top (XPC4 target), with the two CpG motives being underlined. On the chromatograms, 5-methyl-cytosines appear as cytosines (C), and non methylated cytosines (converted to uracil) as thymines (T). In the presence of 5-aza-2-deoxycytidine, a fraction of the CpG motives is demethylated, resulting in a dual C/T peak.
The human 293H cells (ATCC) were plated at a density of 1.2×10^6 cells per 10 cm dish in complete medium (DMEM supplemented with 2 mM L-glutamine, penicillin (100 IU/ml), streptomycin (100 μg/ml), amphotericin B (Fongizone: 0.25 μg/ml, Invitrogen-Life Science) and 10% FBS) supplemented with 5-aza-deoxycytidine. The next day, cells were transfected with 3 μg of meganuclease expression vector in the presence of 5-aza-deoxycytidine and Lipofectamine 2000 transfection reagent (Invitrogen) according to the manufacturer's protocol.
Cells were pre-treated with 5-aza-deoxycytidine at 0.2 μM or 1 μM 48 hours before transfection and the treatment was maintained 48 hours post-transfection. As a control, cells not treated with 5-aza-2-deoxycytidine (NT) were used. Extraction of genomic DNA was performed 48 hours after transfection.
To assess the level DNA methylation, DNA sequencing was performed after a bisulfite treatment according to the instructions of the manufacturer (EZ DNA methylation-Gold Kit, Zymo Research). After genomic DNA extraction, the XPC4 target locus was amplified by PCR with specific primers

[2] = tested on: CAPNS1 target in human CAPNS1 gene, 293H cells; test: Meganuclease-induced mutagenesis assay at CAPNS1 recognition site; assay type: cell-based; conditions: Empty vector, 1 μM 5-aza-2′-deoxycytidine, CAPNS1 locus
Procedure: The human 293H cells (ATCC) were plated at a density of 1.2×10^6 cells per 10 cm dish in complete medium (DMEM supplemented with 2 mM L-glutamine, penicillin (100 IU/ml), streptomycin (100 μg/ml), amphotericin B (Fongizone: 0.25 μg/ml, Invitrogen-Life Science) and 10% FBS). The cells were pre-treated with 5-aza-deoxycytidine at 0.2 μM or 1 μM, 48 hours before transfection and the treatment was maintained 48 hours post-transfection. The medium was changed every day. The cells were transfected with 3 μg of DNA plasmids encoding meganuclease for RAG or 2.5 μg of each monomer CAPNS1 using Lipofectamine 2000 transfection reagent (Invitrogen) according to the manufacturer's protocol.
The efficiency of the meganuclease to promote mutagenesis at its endogenous recognition site was evaluated by sequencing the DNA surrounding the meganuclease cleavage site. Two days post-transfection, genomic DNA was extracted. 200 ng of genomic DNA were used to amplify (PCR amplification) the endogenous locus surrounding the meganuclease cleavage site. PCR amplification is performed to obtain a fragment flanked by specific adaptor sequences [adaptor A: 5′-[…]-NNNN-3′(SEQ ID NO: 46) and adaptor B, 5′-[…]-3′ (SEQ ID NO: 47)] provided by the company offering sequencing service (GATC Biotech AG, Germany) on the 454 sequencing system (454 Life Sciences). The primers sequences used for PCR amplification were:
RAG_R1: 5′-[…]-[…]-3′ (SEQ ID NO: 58) and CAPNS1_J3: 5′-[…]-NNNN-[…] (SEQ ID NO: 59) and CAPNS1_R3: 5′-[…]-[…]-3′ (SEQ ID NO: 60). Sequences specific to the locus are underlined. The sequence NNNN in primer F1 is a Barcode sequence (Tag) needed to link the sequence with a PCR product. The percentage of PCR fragments carrying insertion or deletion at the meganuclease cleavage site is related to the mutagenesis induced by the meganuclease through NHEJ pathway in a cell population, and therefore correlates with the meganuclease activity at its endogenous recognition site. 5000 to 10000 sequences were analyzed per conditions.

C1221 DNA target = test: In vitro binding assay, fluorescence anisotropy of fluorescein-labeled C1221 duplex; conditions: read-out: [I-CreI]50, apparent dissociation constant
Procedure: FIG. 1: Spectrofluorimetric titration of fluorescein-labeled C1221 by I-CreI. 50 nM C1221, containing either 0 or 4 methylated CG on both strands, was incubated with increasing concentrations of I-CreI (from 0 to 1.5 μM) in binding buffer (10 mM Tris-HCl, 150 mM NaCl, 10 mM CaCl2, 10 mM DTT, pH8) at 25° C. After 30 minutes incubation, the fluorescence anisotropy of the mixture was recorded and then plotted as a function of I-CreI concentration.
Fluorescein labeled C1221 oligonucleotides were synthesized and HPLC-purified by Eurogentec. […] C1221 duplex and fluorescein final concentrations were assessed by spectrophotometry using their respective extinction coefficients ε260nm=62900 M^−1 cm^−1 and ε495nm=83000 M^−1 cm^−1. […]
To investigate the binding of I-CreI to C1221 duplex, 50 nM of C1221 duplex was incubated with increasing concentrations of I-CreI (from 0 to 1.5 μM) in binding buffer (10 mM Tris-HCl, 150 mM NaCl, 10 mM CaCl2, 10 mM DTT, pH8) at 25° C. After 30 minutes incubation, the fluorescence anisotropy of the mixture was recorded with a Pherastar Plus (BMG Labtech) operating in fluorescence polarization end point mode with excitation and emission wavelengths set to 495 and 520 nm respectively. […] [I-CreI]50 is defined as the concentration of 1-CreI needed to reach 50% of the final fluorescence anisotropy.

Molecule | amount of unmethylated C, % of total ([1]; 0.2 μM) | amount of unmethylated C, % of total ([1]; 1 μM) | amount of unmethylated C ([1]; 0.2 μM) | amount of unmethylated C ([1]; 1 μM) | mutagenesis, PCR fragments carrying a mutation [2] | mutagenesis, PCR fragments carrying a mutation ([2]; listed as 5-aza-2′-deoxycytidine) | Kd (C1221 DNA target; fully methylated C1221 (4 methylated CG on both strands)) | Kd (C1221 DNA target; unmethylated C1221)
Nc1ncn([C@H]2C[C@H](O)[C@@H](CO)O2)c(=O)n1 [5-aza-2′deoxycytidine, reference compound] | 25% | 36% | 35% | 45% | 0.22%±0.25 | 0.22% ± 0.25 |  | 
B1 |  |  |  |  |  |  | ~1000 nM | 30 nM
